From patent US7262325B2, “Method of preparing salicylamides” (Emisphere Technologies, Inc., priority 2000, dated 2007)

Text: A preferred base for such an alkylation reaction is sodium carbonate. […] The water content of the reaction mixture may also be reduced by performing the reaction in a low pressure atmosphere (e.g a vacuum).

solubility in DMAC: about 6%
Compound: O=c1[n-]c(=O)c2ccccc2o1.[Na+] [carsalam-sodium]
